In ChEMBL document CHEMBL6120963, “Discovery of Novel PROTAC SIRT6 Degraders with Potent Efficacy against Hepatocellular Carcinoma” (J Med Chem, 2024):
Activity calls are given as the source filed them. No cut-off for these calls is given here.

What was measured:
[1] = Toxicity in BALB/c nude mouse xenografted with human SK-HEP1 cells assessed as pathological damage in liver at 10 mg/kg treated for 28 to 30 days in presence of sorafenib by H and E staining based analysis; format: organism-based; details: in vivo, time 28-30 day
SK-HEP1 [2] = test: Inhibition of colony formation in human SK-HEP1 cells at 5 to 10 uM incubated for 10 to 14 days with replacement of medium containing compounds on every 3 days by crystal violet staining based analysis; format: functional, cell-based; details: dose 5-10 µM, time 10-14 day
SK-HEP1 [3] = test: Effect of genes related to ubiquitin-mediated proteolysis in human SK-HEP1 cells at 2.5 uM incubated for 36 hrs by GSEA analysis; format: functional, cell-based
SK-HEP1 [4] = test: Induction of apoptosis in human SK-HEP1 cells at 2.5 uM incubated for 72 hrs in presence of CPT by Annexin V-FITC/PI staining based flow cytometry; format: functional, cell-based
Huh-7 = test: Effect on SIRT1 expression in human Huh-7 cells at 0.002 to 1 uM incubated for 36 hrs by Western blot analysis; format: functional, cell-based; details: dose 0.002-1 µM
SK-HEP1 [5] = test: Effect of ABI3BP mRNA expression in human SK-HEP1 cells at 2.5 uM incubated for 36 hrs by RNA sequencing analysis; format: functional, cell-based
[6] = target: T1, Protein cereblon/NAD-dependent protein deacylase sirtuin-6 (Homo sapiens, UniProt Q8N6T7+Q96SW2); test: PROTAC activity at CRBN/SIRT6 in human Huh-7 cells assessed as induction of SIRT6 degradation incubated for 36 hrs by Western blot analysis; format: cell-based
[7] = target: T1, Protein cereblon/NAD-dependent protein deacylase sirtuin-6; test: In vivo PROTAC activity of CRBN/SIRT6 in human SK-HEP1 cells xenografted in BALB/c nude mouse assessed as induction of SIRT6 degradation at 10 mg/kg treated for 28 to 30 days; format: functional, organism-based; details: time 28-30 day
Target sequence in this assay (Q8N6T7 2-355 limits assumed): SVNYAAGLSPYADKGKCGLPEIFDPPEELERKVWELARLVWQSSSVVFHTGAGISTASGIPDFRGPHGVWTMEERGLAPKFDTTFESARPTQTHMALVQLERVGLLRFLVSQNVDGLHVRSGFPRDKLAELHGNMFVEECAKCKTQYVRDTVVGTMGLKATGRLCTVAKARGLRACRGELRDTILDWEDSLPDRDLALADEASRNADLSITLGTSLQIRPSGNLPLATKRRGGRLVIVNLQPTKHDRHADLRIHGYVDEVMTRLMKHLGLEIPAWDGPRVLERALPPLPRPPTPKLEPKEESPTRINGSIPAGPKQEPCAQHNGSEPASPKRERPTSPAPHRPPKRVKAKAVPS
Target sequence in this assay (Q96SW2 whole entry partner): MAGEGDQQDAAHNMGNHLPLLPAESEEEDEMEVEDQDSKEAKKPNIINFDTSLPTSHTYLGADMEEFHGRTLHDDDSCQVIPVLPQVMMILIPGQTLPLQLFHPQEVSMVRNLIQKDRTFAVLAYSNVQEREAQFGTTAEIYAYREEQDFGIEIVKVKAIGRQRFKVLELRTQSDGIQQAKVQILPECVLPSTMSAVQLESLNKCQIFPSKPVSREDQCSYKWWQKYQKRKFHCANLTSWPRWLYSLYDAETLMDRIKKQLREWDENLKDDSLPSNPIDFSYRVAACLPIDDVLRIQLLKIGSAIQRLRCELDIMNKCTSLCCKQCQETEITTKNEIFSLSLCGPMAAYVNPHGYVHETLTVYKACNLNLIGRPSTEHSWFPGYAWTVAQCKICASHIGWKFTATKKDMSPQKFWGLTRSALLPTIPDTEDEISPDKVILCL

SK-HEP1 [8] = test: Inhibition of colony formation in human SK-HEP1 cells at 5 uM incubated for 10 to 14 days with replacement of medium containing compounds on every 3 days in presence of sorafenib by crystal violet staining based analysis; format: functional, cell-based; details: time 10-14 day
SK-HEP1 [9] = test: Downregulation of FBXO44 expression in human SK-HEP1 cells at 2.5 uM incubated for 36 hrs in presence of MLN4924; format: functional, cell-based
SK-HEP1 [10] = test: Effect of POSTN mRNA expression in human SK-HEP1 cells at 2.5 uM incubated for 36 hrs by RNA sequencing analysis; format: functional, cell-based
[11] = Toxicity in BALB/c nude mouse xenografted with human SK-HEP1 cells assessed as histopathological abnormalities in lungs at 10 mg/kg treated for 28 to 30 days in presence of sorafenib by H and E staining based analysis; format: organism-based; details: in vivo, time 28-30 day
SK-HEP1 [12] = test: Downregulation of ALDOB expression in human SK-HEP1 cells at 2.5 uM incubated for 36 hrs; format: functional, cell-based
SK-HEP1 [13] = test: Inhibition of colony formation in human SK-HEP1 cells at 2.5 uM incubated for 10 to 14 days with replacement of medium containing compounds on every 3 days combined with irradiation (3 Gy) by crystal violet staining based analysis; format: functional, cell-based; details: time 10-14 day
SK-HEP1 [14] = test: Induction of cell cycle arrest in human SK-HEP1 cells assessed as accumulation at G2/M phase incubated for 72 hrs by PI staining based flow cytometry; format: functional; details: dose 2.5-10 µM
[15] = target: T1, Protein cereblon/NAD-dependent protein deacylase sirtuin-6; test: PROTAC activity at CRBN/SIRT6 in human SK-HEP1 cells assessed as induction of SIRT6 degradation upto 10 uM incubated for 36 hrs by Western blot analysis relative to control; format: cell-based
Target sequence in this assay (Q8N6T7 2-355 limits assumed): as the sequence (Q8N6T7 2-355 limits assumed) above
Target sequence in this assay (Q96SW2 whole entry partner): as the sequence (Q96SW2 whole entry partner) above

[16] = target: T1, Protein cereblon/NAD-dependent protein deacylase sirtuin-6; test: PROTAC activity at CRBN/SIRT6 in human SK-HEP1 cells assessed as induction of SIRT6 degradation at 0.02 to 5 uM incubated for 36 hrs by Western blot analysis; format: cell-based; details: dose 0.02-5 µM
Target sequence in this assay (Q8N6T7 2-355 limits assumed): as the sequence (Q8N6T7 2-355 limits assumed) above
Target sequence in this assay (Q96SW2 whole entry partner): as the sequence (Q96SW2 whole entry partner) above

SK-HEP1 [17] = test: Effect of genes related to DNA replication in human SK-HEP1 cells at 2.5 uM incubated for 36 hrs by GSEA analysis; format: functional, cell-based
SK-HEP1 [18] = test: Downregulation of CCPG1 expression in human SK-HEP1 cells at 2.5 uM incubated for 36 hrs in presence of MG132; format: functional, cell-based
SK-HEP1 [19] = test: Effect on SIRT1 expression in human SK-HEP1 cells at 0.002 to 1 uM incubated for 36 hrs by Western blot analysis; format: functional, cell-based; details: dose 0.002-1 µM
[20] = target: T1, Protein cereblon/NAD-dependent protein deacylase sirtuin-6; test: PROTAC activity at CRBN/SIRT6 in human SK-HEP1 cells assessed as impairment in CHD4 foci formation by immunofluorescence based analysis; format: cell-based
Target sequence in this assay (Q8N6T7 2-355 limits assumed): as the sequence (Q8N6T7 2-355 limits assumed) above
Target sequence in this assay (Q96SW2 whole entry partner): as the sequence (Q96SW2 whole entry partner) above

[21] = Toxicity in BALB/c nude mouse xenografted with human SK-HEP1 cells assessed as body weight loss at 10 mg/kg treated for 28 to 30 days; format: organism-based; details: in vivo, time 28-30 day
SK-HEP1 [22] = test: Induction of apoptosis in human SK-HEP1 cells xenografted in BALB/c nude mouse assessed as increase in cleaved caspase-3 level at 10 mg/kg treated for 28 to 30 days under irradiation (3 Gy); format: functional, organism-based; details: time 28-30 day
[23] = Toxicity in BALB/c nude mouse xenografted with human SK-HEP1 cells assessed as pathological damage in heart at 10 mg/kg treated for 28 to 30 days by H and E staining based analysis; format: organism-based; details: in vivo, time 28-30 day
[24] = target: T1, Protein cereblon/NAD-dependent protein deacylase sirtuin-6; test: PROTAC activity at CRBN/SIRT6 in human SK-HEP1 cells assessed as induction of SIRT6 degradation at 1 uM incubated for 24 to 36 hrs by Western blot analysis; format: cell-based; details: time 24-36 hrs
Target sequence in this assay (Q8N6T7 2-355 limits assumed): as the sequence (Q8N6T7 2-355 limits assumed) above
Target sequence in this assay (Q96SW2 whole entry partner): as the sequence (Q96SW2 whole entry partner) above

[25] = target: T1, Protein cereblon/NAD-dependent protein deacylase sirtuin-6; test: PROTAC activity at CRBN/SIRT6 in pomalidomide-treated human SK-HEP1 cells assessed as induction of SIRT6 degradation at 2.5 uM treated for 36 hrs by Western blot analysis; format: cell-based
Target sequence in this assay (Q8N6T7 2-355 limits assumed): as the sequence (Q8N6T7 2-355 limits assumed) above
Target sequence in this assay (Q96SW2 whole entry partner): as the sequence (Q96SW2 whole entry partner) above

[26] = target: T1, Protein cereblon/NAD-dependent protein deacylase sirtuin-6; test: PROTAC activity at CRBN/SIRT6 in human U2OS cells expressing EJ5 assessed as inhibition of SNF2H loading onto chromatin incubated for 36 hrs by FACS analysis; format: cell-based
SK-HEP1 [27] = test: Cytotoxicity against human SK-HEP1 cells combined with irradiation (3 Gy) incubated for 72 hrs by CCK8 assay; format: functional, cell-based; details: SK-HEP1, light or radiation study
SK-HEP1 [28] = test: Cytotoxicity against human SK-HEP1 cells harboring SIRT6 siRNA incubated for 72 hrs by CCK8 assay; format: functional, cell-based
[29] = Toxicity in BALB/c nude mouse xenografted with human SK-HEP1 cells assessed as histopathological abnormalities in heart at 10 mg/kg treated for 28 to 30 days under irradiation (3 Gy) by H and E staining based analysis; format: organism-based; details: in vivo, time 28-30 day
SK-HEP1 [30] = test: Antitumor activity against human SK-HEP1 cells xenografted in BALB/c nude mouse at 10 mg/kg treated for 28 to 30 days under irradiation (3 Gy) (reference value: 38.4 %); format: functional; details: time 28-30 day
[31] = Toxicity in BALB/c nude mouse xenografted with human SK-HEP1 cells assessed as pathological damage in lungs at 10 mg/kg treated for 28 to 30 days by H and E staining based analysis; format: organism-based; details: in vivo, time 28-30 day
[32] = Toxicity in BALB/c nude mouse xenografted with human SK-HEP1 cells assessed as pathological damage in kidney at 10 mg/kg treated for 28 to 30 days in presence of sorafenib by H and E staining based analysis; format: organism-based; details: in vivo, time 28-30 day
SK-HEP1 [33] = test: Effect on H3K56Ac expression in human SK-HEP1 cells at 0.002 to 1 uM incubated for 36 hrs by Western blot analysis; format: functional, cell-based; details: dose 0.002-1 µM

DC50 [6]: 154 nM
Activity [7]: Active
Emax [15]: > 98%
Activity [16]: Active
Activity [20]: Active
Activity [25]: inactive
SMILES: Nc1cc(N2CCN(CC3CCN(c4cc5c(cc4F)C(=O)N(C4CCC(=O)NC4=O)C5=O)CC3)CC2)ccc1[N+](=O)[O-] (stereo not given)
Activity [1]: Non-toxic
inhibition (SK-HEP1 [2]): Active
Activity (SK-HEP1 [3]): Active
Activity (SK-HEP1 [4]): Active
Activity (Huh-7): No effect
Activity (SK-HEP1 [5]): Active
Activity ([6]; dose 0.008-5 µM): Dose-dependent-effect; But Reduced Degradation Efficiency Observed
inhibition (SK-HEP1 [8]): Not active; Exhibited Weaker Inhibition
Activity (SK-HEP1 [9]): inactive
Activity (SK-HEP1 [10]): Active
Activity [11]: Non-toxic
Activity (SK-HEP1 [12]): Active
inhibition (SK-HEP1 [13]): Active; Exhibited Superior To Compound Alone
Activity (SK-HEP1 [14]): Dose-dependent-effect
Activity (SK-HEP1 [17]): Active
Activity (SK-HEP1 [18]): inactive
Activity (SK-HEP1 [19]): No effect
Activity [21]: Non-toxic
Activity (SK-HEP1 [22]): Active
Activity [23]: Non-toxic
Activity [24]: Active; Reached A Plateau After 36 Hrs Of Treatment, But A Dramatic Reduction Observed
inhibition [26]: Active; Results In Decrease In Hr And Nhej Efficiencies
IC50 (SK-HEP1 [27]): ~450 nM
Activity (SK-HEP1 [28]): inactive
Activity [29]: Non-toxic
T/C (SK-HEP1 [30]): 26.1%
Activity [31]: Non-toxic
Activity [32]: Non-toxic
Activity (SK-HEP1 [33]): No effect
